SMILES strings stand for the structures. Several values for one entry are separate records, joined by “and”; a condition that tells them apart may be missing. Equal entries are not always repeated. Non-standard residues stand in square brackets, D forms with d. Residues, ends and D or L forms follow the SMILES beside them. Tic = O=C(O)[C@@H]1Cc2ccccc2CN1

This note sets out measurements from BindingDB's records for doi:10.1016/s0196-9781(98)00023-0 (Hungarian Academy of Sciences, 1998).

One experiment has as its target Mu-type opioid receptor (Rattus norvegicus, UniProt P33535).
The target of experiment [1] is Delta-type opioid receptor (Rattus norvegicus, UniProt P33533).
Sequence of Delta-type opioid receptor (P33533 whole entry): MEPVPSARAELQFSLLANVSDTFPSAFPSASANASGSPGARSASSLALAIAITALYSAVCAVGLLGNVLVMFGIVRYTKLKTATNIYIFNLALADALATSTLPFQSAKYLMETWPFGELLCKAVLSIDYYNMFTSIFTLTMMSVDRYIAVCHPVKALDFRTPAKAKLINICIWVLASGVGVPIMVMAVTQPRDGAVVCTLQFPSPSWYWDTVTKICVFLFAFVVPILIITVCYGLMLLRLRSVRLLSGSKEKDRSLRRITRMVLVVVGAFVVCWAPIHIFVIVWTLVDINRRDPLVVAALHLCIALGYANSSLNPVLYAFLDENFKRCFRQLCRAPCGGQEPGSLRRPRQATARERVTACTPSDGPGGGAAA

Sequence of Mu-type opioid receptor (P33535 whole entry): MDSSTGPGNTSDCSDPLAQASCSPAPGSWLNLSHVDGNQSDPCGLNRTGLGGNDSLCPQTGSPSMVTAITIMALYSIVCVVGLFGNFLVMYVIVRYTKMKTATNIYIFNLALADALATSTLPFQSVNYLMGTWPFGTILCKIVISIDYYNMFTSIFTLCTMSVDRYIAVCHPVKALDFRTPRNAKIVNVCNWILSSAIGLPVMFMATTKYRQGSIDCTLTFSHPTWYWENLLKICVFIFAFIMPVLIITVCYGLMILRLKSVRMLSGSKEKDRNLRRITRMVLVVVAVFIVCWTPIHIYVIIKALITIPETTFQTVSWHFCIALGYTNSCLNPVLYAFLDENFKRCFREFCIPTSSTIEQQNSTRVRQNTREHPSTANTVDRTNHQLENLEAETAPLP

For the compound `COc1cccc2c1[C@]13CCN(CC4CC4)C(C2)[C@]1(OC)CCC(=O)C3`, the inhibitory constant (Ki) (in general, a measure of affinity in units of concentration, obtained from inhibition or displacement) at Mu-type opioid receptor was 4.59 nM and 7.23 nM.

Turning to `CC(C)C[C@H](NC(=O)[C@H](Cc1ccccc1)NC(=O)CNC(=O)[C@@H](CO)NC(=O)[C@@H](N)Cc1ccc(O)cc1)C(=O)N[C@H](C(=O)O)[C@@H](C)O` [DSLET-OH], in experiment [1], the Ki was 7.34 nM and 8.71 nM.

On to `Oc1ccc2c3c1OC1c4[nH]c5ccccc5c4CC4(O)[C@H](C2)N(CC2CC2)CCC314` (some centres undefined) [NALTRINDOLE], for which the Ki in experiment [1] is 10.8 nM and 25.7 nM. For `N[C@@H](Cc1ccc(O)cc1)C(=O)N1Cc2ccccc2C[C@H]1C(=O)N[C@@H](Cc1ccccc1)C(=O)N[C@@H](Cc1ccccc1)C(=O)O` [TIPP] (H-Y[Tic]FF-OH), the Ki in experiment [1] is 9150 nM and 1700 nM.
